Legend:
VSV-G pseudotyped virus = assay type: cell-based, vesicular stomatitis virus
[1] = system: VSV-G pseudotyped virus containing env-luc1; assay type: cell-based, vesicular stomatitis virus
[2] = system: Friend MLV containing env-luc1; assay type: cell-based, Friend murine leukemia virus
[3] = system: VSV env pseudotyped virus; assay type: cell-based, Vesicular Stomatitis Virus
[4] = system: Rabies env pseudotyped virus; assay type: cell-based
[5] = system: MLV env pseudotyped virus; assay type: cell-based, murine leukemia virus
[6] = system: Ebola env pseudotyped virus; assay type: cell-based

SMILES: CCN(CC)CCCC(C)Nc1ccnc2cc(Cl)ccc12 (stereo not shown) [chloroquine]
- reduction of infection (β-galactosidase infection assay) (VSV-G pseudotyped virus): 20 fold
- decrease of luciferase entry signal [1]: 7 fold
- effect on luciferase entry signal [1]: inhibited the signal
- effect on luciferase entry signal [2]: only weakly affected

SMILES: CO/C1=C\C(C)=C\[C@@H](C)[C@@H](O)[C@@H](C)C/C(C)=C/C=C/[C@H](OC)[C@@H]([C@@H](C)[C@@H](O)[C@H](C)[C@@]2(O)C[C@@H](O)[C@H](C)[C@@H](C(C)C)O2)OC1=O [bafilomycin A1]
- reduction of infection (β-galactosidase infection assay) (VSV-G pseudotyped virus): 100 fold
- effect on luciferase entry signal [1]: inhibited the signal
- effect on luciferase entry signal [2]: only weakly affected
- effect on luciferase activities in the viral entry assay [3]: completely inhibit
- effect on luciferase activities in the viral entry assay [4]: completely inhibit
- effect on luciferase activities in the viral entry assay [5]: little effect
- effect on entry of Ebola virus env pseudotyped particles [6]: significantly inhibited

SMILES: Cl.N [ammonium chloride]
- effect on luciferase entry signal [1]: inhibited the signal
- effect on luciferase entry signal [2]: only weakly affected
- effect on luciferase activities in the viral entry assay [3]: completely inhibit
- effect on luciferase activities in the viral entry assay [4]: completely inhibit
- effect on entry of Ebola virus env pseudotyped particles [6]: significantly inhibited
